Measured values as given in patent US6875451B2, “Compositions and methods for the treatment of primary and metastatic neoplastic diseases using arsenic compounds” (PolaRx Biopharmaceuticals Inc., priority 1997, dated 2005).

Legend:
Type in all cases: cell-based
CCRF-CEM = test: SRB growth assay, 2 days exposure, leukemia
Experimental: (§1) Arsenic trioxide (1 mg/ml, 10 mg/ampoule, manufactured by Taylor Pharmaceuticals, Decatur, Ill.) was tested at five concentrations each at 10-fold dilutions, i.e., 10^−5, 10^−6, 10^−7, 10^−8 and 10^−9 μg/ml.
(§2) The in vitro tests were performed by incubating the test cells in the presence of the indicated concentration of arsenic trioxide under standard culture conditions for a designated period of time, which is followed by a sulforhodamine B (SRB) protein assay to estimate cell viability or growth. The cell lines are organized into subpanels according to the origin of the cell lines, e.g., leukemia, breast cancer, etc. A description of the cell lines and method of testing is described in Monk et al. (1997, Anticancer Drug Des. 12:533-41) and Weinstein et al., (1997, Science 275:343-9), which are incorporated herein in their entirety.
(§3) The measurement of an effect is expressed in Percentage Growth (PG). The measured effect of the compound on a cell line is calculated according to one or the other of the following two expressions: If (Mean ODtest−Mean ODzero)≧0. then PG=100×(Mean ODtest−Mean ODzero)/(Mean ODctrl−Mean ODzero) If (Mean ODtest−Mean ODzero)<0. then PG=100×(Mean ODtest−Mean ODzero)/(Mean ODzero where: • Mean ODzero=the average of optical density measurements of SRB-derived color just before exposure of cells to the test compounds; • Mean ODtest=the average of optical density measurements of SRB-derived color after exposure of cells to the test compound for a designated period of time; and • Mean ODctrl=the average of optical density measurements of SRB-derived color after with no exposure of cells to the test compound for a designated period of time
(§4) The first two columns describe the subpanel (e.g., leukemia) and cell line (e.g., CCRF-CEM) involved. The next two columns list the Mean ODzero and Mean ODctrl; the next five columns list the Mean ODtest for each of five different concentrations. Each concentration is expressed as the log10 (molar or μg/ml). The next five columns list the calculated PGs for each concentration. The response parameters GI50, TGI and LC50 are interpolated values representing the concentrations at which the PG is +50, 0, and −50, respectively. Sometimes these response parameters cannot be obtained by interpolation. If, for instance, all of the PGs in a given row exceed +50, then none of the three parameters can be obtained by interpolation. In such a case, the value given for each response parameter is the highest concentration tested and is preceded by a “>” sign. This practice is extended similarly to the other possible situations where a response parameter cannot be obtained by interpolation.
(§5) In the first set, the cells from 56 different cancer cell lines were exposed to five concentrations of arsenic trioxide continuously for two days prior to performing the SRB assay. In the second set, the cells from 50 different cell lines (a subset of the first 56 cell lines, plus the renal cancer cell line 786-0) were exposed continuously for six days prior to the SRB assay.

K-562 = test: SRB growth assay, 2 days exposure, leukemia
Experimental: as §1, §2, §3, §4, §5

MOLT-4 = test: SRB growth assay, 2 days exposure, leukemia
Experimental: as §1, §2, §3, §4, §5

RPMI-8226 = test: SRB growth assay, 2 days exposure, leukemia
Experimental: as §1, §2, §3, §4, §5

SR = test: SRB growth assay, 2 days exposure, leukemia
Experimental: as §1, §2, §3, §4, §5

NCI-H23 = test: SRB growth assay, 6 days exposure, non-small cell lung cancer; details: NCI-H23, 6 days
Experimental: as §1, §2, §3, §4, §5

NCI-H322M = test: as above
Experimental: as §1, §2, §3, §4, §5

NCI-H460 = test: as above; details: NCI-H460, 6 days
Experimental: as §1, §2, §3, §4, §5

NCI-H522 = test: as above; details: NCI-H522, 6 days
Experimental: as §1, §2, §3, §4, §5

TK-10 = test: SRB growth assay, 6 days exposure, renal cancer; details: TK-10, 6 days
Experimental: as §1, §2, §3, §4, §5

[1] = read-out: LC50 (the source's name)

arsenic trioxide was tested, and the TGI (CCRF-CEM) was 0.01 ng/mL, the “Percent Growth” value (CCRF-CEM; log10 conc −4.9) was −5% and the “Percent Growth” value (CCRF-CEM; log10 conc −5.9) was 47%. The “Percent Growth” value (CCRF-CEM; log10 conc −6.9) was 98%, the “Percent Growth” value (CCRF-CEM; log10 conc −7.9) was 105% and the “Percent Growth” value (CCRF-CEM; log10 conc −8.9) was 106%. The TGI (K-562) was 0.011 ng/mL, the “Percent Growth” value (K-562; log10 conc −4.9) was −5% and the “Percent Growth” value (K-562; log10 conc −5.9) was 76%. The “Percent Growth” value (K-562; log10 conc −6.9) was 100%, the “Percent Growth” value (K-562; log10 conc −7.9) was 101% and the “Percent Growth” value (K-562; log10 conc −8.9) was 98%. The TGI (MOLT-4) was over 0.0126 ng/mL, the “Percent Growth” value (MOLT-4; log10 conc −4.9) was 4% and the “Percent Growth” value (MOLT-4; log10 conc −5.9) was 77%. For the same substance, the “Percent Growth” value (MOLT-4; log10 conc −6.9) was 105%, the “Percent Growth” value (MOLT-4; log10 conc −7.9) was 105% and the “Percent Growth” value (MOLT-4; log10 conc −8.9) was 109%. The TGI (RPMI-8226) was 0.00723 ng/mL, the “Percent Growth” value (RPMI-8226; log10 conc −4.9) was −21% and the “Percent Growth” value (RPMI-8226; log10 conc −5.9) was 65%. The “Percent Growth” value (RPMI-8226; log10 conc −6.9) was 87%, the “Percent Growth” value (RPMI-8226; log10 conc −7.9) was 93% and the “Percent Growth” value (RPMI-8226; log10 conc −8.9) was 96%. For the same substance, the TGI (SR) was 0.00585 ng/mL, the “Percent Growth” value (SR; log10 conc −4.9) was −30% and the “Percent Growth” value (SR; log10 conc −5.9) was 60%. For the same substance, the “Percent Growth” value (SR; log10 conc −6.9) was 100%, the “Percent Growth” value (SR; log10 conc −7.9) was 89% and the “Percent Growth” value (SR; log10 conc −8.9) was 99%. For the same substance, the “Mean Optical Densities” value (NCI-H23; Log 10 Concentration −4.9) was 0.086, the “Percent Growth” value (NCI-H23; Log 10 Concentration −4.9) was 1% and the “Mean Optical Densities” value (NCI-H23; Log 10 Concentration −5.9) was 1.303. For the same substance, the “Percent Growth” value (NCI-H23; Log 10 Concentration −5.9) was 79%, the “Mean Optical Densities” value (NCI-H23; Log 10 Concentration −6.9) was 1.872 and the “Percent Growth” value (NCI-H23; Log 10 Concentration −6.9) was 116%. For the same substance, the “Mean Optical Densities” value (NCI-H23; Log 10 Concentration −7.9) was 1.814, the “Percent Growth” value (NCI-H23; Log 10 Concentration −7.9) was 112% and the “Mean Optical Densities” value (NCI-H23; Log 10 Concentration −8.9) was 1.818. For the same substance, the “Percent Growth” value (NCI-H23; Log 10 Concentration −8.9) was 113%, the CC50 (NCI-H23; [1]) was over 12.6 µM and the “Mean Optical Densities” value (NCI-H322M; Log 10 Concentration −4.9) was 0.054. For the same substance, the “Percent Growth” value (NCI-H322M; Log 10 Concentration −4.9) was 3%, the “Mean Optical Densities” value (NCI-H322M; Log 10 Concentration −5.9) was 0.552 and the “Percent Growth” value (NCI-H322M; Log 10 Concentration −5.9) was 77%. The “Mean Optical Densities” value (NCI-H322M; Log 10 Concentration −6.9) was 0.674, the “Percent Growth” value (NCI-H322M; Log 10 Concentration −6.9) was 96% and the “Mean Optical Densities” value (NCI-H322M; Log 10 Concentration −7.9) was 0.620. The “Percent Growth” value (NCI-H322M; Log 10 Concentration −7.9) was 88%, the “Mean Optical Densities” value (NCI-H322M; Log 10 Concentration −8.9) was 0.680 and the “Percent Growth” value (NCI-H322M; Log 10 Concentration −8.9) was 97%. For the same substance, the CC50 (NCI-H322M; [1]) was over 12.6 µM, the “Mean Optical Densities” value (NCI-H460; Log 10 Concentration −4.9) was 0.062 and the “Percent Growth” value (NCI-H460; Log 10 Concentration −4.9) was 1%. The “Mean Optical Densities” value (NCI-H460; Log 10 Concentration −5.9) was 2.535, the “Percent Growth” value (NCI-H460; Log 10 Concentration −5.9) was 89% and the “Mean Optical Densities” value (NCI-H460; Log 10 Concentration −6.9) was 2.792. The “Percent Growth” value (NCI-H460; Log 10 Concentration −6.9) was 98%, the “Mean Optical Densities” value (NCI-H460; Log 10 Concentration −7.9) was 2.806 and the “Percent Growth” value (NCI-H460; Log 10 Concentration −7.9) was 99%. The “Mean Optical Densities” value (NCI-H460; Log 10 Concentration −8.9) was 2.797, the “Percent Growth” value (NCI-H460; Log 10 Concentration −8.9) was 99% and the CC50 (NCI-H460; [1]) was over 12.6 µM. For the same substance, the “Mean Optical Densities” value (NCI-H522; Log 10 Concentration −4.9) was 0.028, the “Percent Growth” value (NCI-H522; Log 10 Concentration −4.9) was −84% and the “Mean Optical Densities” value (NCI-H522; Log 10 Concentration −5.9) was 0.128. The “Percent Growth” value (NCI-H522; Log 10 Concentration −5.9) was −27%, the “Mean Optical Densities” value (NCI-H522; Log 10 Concentration −6.9) was 1.191 and the “Percent Growth” value (NCI-H522; Log 10 Concentration −6.9) was 97%. The “Mean Optical Densities” value (NCI-H522; Log 10 Concentration −7.9) was 0.535, the “Percent Growth” value (NCI-H522; Log 10 Concentration −7.9) was 34% and the “Mean Optical Densities” value (NCI-H522; Log 10 Concentration −8.9) was 1.269. The “Percent Growth” value (NCI-H522; Log 10 Concentration −8.9) was 104%, the TGI (TK-10) was over 1.26E−05 and the “Mean Optical Densities” value (TK-10; Log 10 Concentration −4.9) was 0.239. The “Percent Growth” value (TK-10; Log 10 Concentration −4.9) was 13%, the “Mean Optical Densities” value (TK-10; Log 10 Concentration −5.9) was 1.103 and the “Percent Growth” value (TK-10; Log 10 Concentration −5.9) was 82%. The “Mean Optical Densities” value (TK-10; Log 10 Concentration −6.9) was 1.334, the “Percent Growth” value (TK-10; Log 10 Concentration −6.9) was 100% and the “Mean Optical Densities” value (TK-10; Log 10 Concentration −7.9) was 1.268. For the same substance, the “Percent Growth” value (TK-10; Log 10 Concentration −7.9) was 95%, the “Mean Optical Densities” value (TK-10; Log 10 Concentration −8.9) was 1.356 and the “Percent Growth” value (TK-10; Log 10 Concentration −8.9) was 102%. The CC50 (TK-10; [1]) was over 12.6 µM.
